From the supplement of paper PMC10307832

What was measured:
Assay in all cases: relative viability (nuclei count vs DMSO), 5 days (fraction); higher = more cells survive
TGX 221 + Alpelisib = compound: CC1=CN2C(=O)C=C(N=C2C(=C1)C(C)NC3=CC=CC=C3)N4CCOCC4 [TGX 221] + Cc1nc(NC(=O)N2CCC[C@H]2C(N)=O)sc1-c1ccnc(C(C)(C)C(F)(F)F)c1 [Alpelisib] (partner 2 µM)
Outline: (§1)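 Nuclei were stained with Hoechst during a one-step fixation (final 0.05% Triton X-100, 1% formaldehyde, 1 ug/ml Hoechst) carried out 5 days after dosing, then counted on 4× images. The cells, lung cancer lines in 1536-well plates, had been dosed by pin tool the day after seeding with one drug alone or a fixed anchor-drug dose plus five library-drug doses (not always all listed) in √10 steps. Relative viability is the nuclei count in treated wells divided by that in vehicle wells, and each value is the median of duplicate plates.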

TGX 221 + Navitoclax = compound: CC1=CN2C(=O)C=C(N=C2C(=C1)C(C)NC3=CC=CC=C3)N4CCOCC4 [TGX 221] + CC1(C)CCC(c2ccc(Cl)cc2)=C(CN2CCN(c3ccc(C(=O)NS(=O)(=O)c4ccc(N[C@H](CCN5CCOCC5)CSc5ccccc5)c(S(=O)(=O)C(F)(F)F)c4)cc3)CC2)C1 [Navitoclax] (partner 0.5 µM)
Outline: as §1

TGX 221 + Foretinib = compound: CC1=CN2C(=O)C=C(N=C2C(=C1)C(C)NC3=CC=CC=C3)N4CCOCC4 [TGX 221] + COc1cc2c(Oc3ccc(NC(=O)C4(C(=O)Nc5ccc(F)cc5)CC4)cc3F)ccnc2cc1OCCCN1CCOCC1 [Foretinib] (partner 0.25 µM)
Outline: as §1

[1] = compound: O=C(CCCCCCNC(=O)c1cnc(N(c2ccccc2)c2ccccc2)nc1)NO [Ricolinostat] + CC(=O)Nc1cccc(-n2c(=O)n(C3CC3)c(=O)c3c(Nc4ccc(I)cc4F)n(C)c(=O)c(C)c32)c1 [Trametinib] (partner 0.02 µM)
Outline: as §1

Cell Line	relative viability (TGX 221 + Alpelisib; first compound 0.08 µM)	relative viability (TGX 221 + Alpelisib; first compound 0.253 µM)	relative viability (TGX 221 + Alpelisib; first compound 0.8 µM)	relative viability (TGX 221 + Alpelisib; first compound 2.53 µM)	relative viability (TGX 221 + Alpelisib; first compound 8 µM)	relative viability (TGX 221 + Navitoclax; first compound 0.08 µM)	relative viability (TGX 221 + Navitoclax; first compound 0.253 µM)	relative viability (TGX 221 + Navitoclax; first compound 0.8 µM)	relative viability (TGX 221 + Navitoclax; first compound 2.53 µM)	relative viability (TGX 221 + Navitoclax; first compound 8 µM)	relative viability (TGX 221 + Foretinib; first compound 0.08 µM)	relative viability (TGX 221 + Foretinib; first compound 0.253 µM)	relative viability (TGX 221 + Foretinib; first compound 0.8 µM)	relative viability (TGX 221 + Foretinib; first compound 2.53 µM)	relative viability (TGX 221 + Foretinib; first compound 8 µM)	relative viability ([1]; first compound 0.08 µM)	relative viability ([1]; first compound 0.253 µM)	relative viability ([1]; first compound 0.8 µM)	relative viability ([1]; first compound 2.53 µM)
NCI-H2126	0.708	0.652	0.611	0.58	0.617	0.831	0.835	0.837	0.752	0.817	1.19	1.11	1	1.05	1.05	0.531	0.548	0.564	0.52
NCI-H1651	0.83	0.742	0.77	0.716	0.498	0.977	0.964	0.948	0.734	0.733	0.768	0.611	0.729	0.586	0.609	0.768	0.794	0.83	0.835
HCC-827	0.929	0.807	0.904	0.482	0.438	0.951	1.02	1.02	1.05	0.982	1.08	1.08	1.07	0.927	0.904	0.49	0.527	0.581	0.584
NCI-H2085	0.94	0.689	0.57	0.424	0.406	1.11	0.978	0.951	0.622	0.626	1.06	0.845	0.96	0.428	0.401	–	0.491	0.516	0.513
EPLC-272H	0.877	0.828	0.799	–	0.62	1.1	1.17	1.19	–	1.29	0.628	0.538	0.515	0.764	0.479	–	0.284	0.313	0.26
A-427	1.04	1.11	1.14	0.976	1.08	1.05	0.976	0.949	0.935	0.803	1.15	0.987	1.12	1.05	1.06	0.652	0.776	0.723	0.654
NCI-H2228	0.693	0.468	0.551	0.523	0.403	0.856	0.949	0.609	0.931	0.644	0.738	0.853	0.787	0.754	0.72	0.642	0.534	0.482	0.45
EMC-BAC-2	0.735	0.597	0.679	0.623	0.629	1.16	1.1	1.13	1.11	1.05	1.03	0.882	0.882	0.903	0.773	0.809	0.895	0.819	0.74
NCI-H2405	0.586	0.615	0.582	0.531	0.463	0.701	0.815	0.804	0.668	0.636	1.01	0.99	1.04	0.897	0.863	0.591	0.682	0.666	0.82
NCI-H1993	0.64	0.57	0.723	0.616	0.651	0.761	0.848	0.884	0.831	0.82	0.723	0.787	0.755	0.71	0.664	0.5	0.583	0.564	0.665
LU99A	0.524	0.443	0.494	0.513	0.57	0.647	0.756	0.824	0.799	0.811	0.68	0.902	0.755	0.917	0.953	0.555	0.559	0.475	0.599
NCI-H1355	0.711	0.67	0.673	0.584	0.54	0.88	0.747	0.764	0.598	0.707	0.994	0.814	0.984	0.849	0.788	0.411	0.43	0.346	0.412
NCI-H838	0.902	0.88	0.849	0.723	0.631	1.08	0.977	1.05	0.888	0.779	1.04	0.952	0.945	0.799	0.7	0.495	0.546	0.548	0.375
SK-MES-1	0.843	0.628	0.785	0.549	0.476	1.17	1.05	1.13	1.05	0.996	0.994	0.733	0.863	0.75	0.558	0.548	0.537	0.656	0.734
NCI-H460	0.386	0.295	0.274	0.167	0.137	1.04	1.02	1.24	1.19	1.07	1.02	0.968	1.14	0.957	0.83	0.114	0.169	0.184	0.0996
HCC-78	0.299	0.23	–	0.2	0.175	0.654	0.665	–	0.457	0.487	0.581	0.551	0.586	0.478	0.502	–	0.782	0.768	0.601
H3255	0.568	0.581	0.534	0.448	0.378	0.486	0.49	0.515	0.553	0.601	0.88	0.762	0.844	0.852	0.868	0.571	0.644	0.677	0.76
